pKi: −log10 of the molar value.

For this assay, the target named is hMC2 receptor (Homo sapiens, UniProt Q01718). The experiment in a line: hMC2 membrane binding assay ([125I]ACTH (1-39) Tyr23, SPA). Also noted: scale not given here. As to conditions: crude hMC2R membranes from CRE-bla-CHO-K1 cells expressing hMC2 receptor and hMRAP; [125I]ACTH (1-39) Tyr23 0.2 nM; 1.5 hours at room temperature; read-out: MC2R binding potency. The method in brief: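 Ki comes from non-linear regression of SPA scintillation counts. Displacement of 0.2 nM [125I]ACTH(1-39) Tyr23 by compound dose series (usually 0–10,000 nM final) ran 1.5 h at room temperature. Membranes came from CHO-K1 CRE-bla cells stably expressing hMC2R plus hMRAP, bead-coupled in pH 7.4 buffer with 0.2% BSA.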
Sequence of hMC2 receptor (Q01718 whole entry): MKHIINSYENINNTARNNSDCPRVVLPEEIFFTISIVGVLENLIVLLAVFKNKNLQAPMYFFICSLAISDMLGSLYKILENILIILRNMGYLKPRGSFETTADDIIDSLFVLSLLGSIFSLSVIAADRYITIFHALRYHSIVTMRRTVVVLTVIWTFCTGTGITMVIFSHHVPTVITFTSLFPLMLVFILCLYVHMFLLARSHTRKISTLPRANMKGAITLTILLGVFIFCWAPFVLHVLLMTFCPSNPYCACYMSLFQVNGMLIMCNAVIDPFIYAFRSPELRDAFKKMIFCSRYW
Sequence of hMC2 receptor (Q8TCY5 whole entry partner): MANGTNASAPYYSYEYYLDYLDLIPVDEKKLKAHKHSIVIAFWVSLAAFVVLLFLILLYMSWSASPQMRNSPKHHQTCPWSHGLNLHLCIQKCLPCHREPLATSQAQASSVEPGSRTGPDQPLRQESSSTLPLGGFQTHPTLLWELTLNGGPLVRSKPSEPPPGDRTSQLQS
Turning to `CCOc1ncccc1-c1ccc(N2CCN(C(=O)C3(C(F)(F)F)CCCC3)C[C@H]2CC)c(C(=O)NC[C@@H]2CCCN2)n1` [Compound 1-325, 2′-ethoxy-5-[(2R)-2-ethyl-4-[1-(trifluoromethyl)cyclopentanecarbonyl]piperazin-1-yl]-N-{[(2S)-pyrrolidin-2-yl]methyl}-[2,3′-bipyridine]-6-carboxamide], the pKi was more than 8.00.
As for `CCOc1ncccc1-c1ccc(N2CCN(C(=O)C3(C(F)(F)F)CCCC3)C[C@H]2CC)c(C(=O)NC[C@@H]2CCCN2C)n1` [Compound 1-332, 2′-ethoxy-5-[(2R)-2-ethyl-4-[1-(trifluoromethyl)cyclopentanecarbonyl]piperazin-1-yl]-N-{[(2S)-1-methylpyrrolidin-2-yl]methyl}-[2,3′-bipyridine]-6-carboxamide], the pKi was more than 8.00.
For `CCOc1ncccc1-c1ccc(N2CCN(C(=O)c3ccc(Cl)cc3N3CC[C@H](N)C3)C[C@H]2CC)c(C(=O)NCCN)c1` [Compound 1-57, N-(2-aminoethyl)-2-[(2R)-4-{2-[(3S)-3-aminopyrrolidin-1-yl]-4-chlorobenzoyl}-2-ethylpiperazin-1-yl]-5-(2-ethoxypyridin-3-yl)benzamide], the pKi is more than 8.00.
Take `CCOc1ccccc1-c1ccc(N2CCN(C(=O)C3(C(F)(F)F)CCCC3)C[C@H]2CC)c(C(=O)N[C@@H]2CCN(C)C2)n1` [Compound 1-341, 6-(2-ethoxyphenyl)-3-[(2R)-2-ethyl-4-[1-(trifluoromethyl)cyclopentanecarbonyl]piperazin-1-yl]-N-[(3R)-1-methylpyrrolidin-3-yl]pyridine-2-carboxamide]: the pKi was more than 8.00.
Next, `CCOc1ccccc1-c1ccc(N2CCN(C(=O)OC(C(C)(C)C)C(F)(F)F)C[C@H]2CC)c(C(=O)N[C@@H]2CCNC2)n1` (stereo partly drawn) [Compound 1-348, 1,1,1-trifluoro-3,3-dimethylbutan-2-yl (3R)-4-[6-(2-ethoxyphenyl)-2-{[(3R)-pyrrolidin-3-yl]carbamoyl}pyridin-3-yl]-3-ethylpiperazine-1-carboxylate]: more than 8.00; `CCOc1ncccc1-c1ccc(N2CCN(C(=O)C3(C(F)(F)F)CC(F)(F)C3)C[C@H]2CC)c(C(=O)N[C@@H]2CCNC2)n1` [Compound 1-298, 5-[(2R)-4-[3,3-difluoro-1-(trifluoromethyl)cyclobutanecarbonyl]-2-ethylpiperazin-1-yl]-2′-ethoxy-N-[(3R)-pyrrolidin-3-yl]-[2,3′-bipyridine]-6-carboxamide]: more than 8.00; `CCOc1ncccc1-c1ccc(N2CCN(C(=O)n3ccc4cccc(Cl)c43)C[C@H]2CC)c(C(=O)N[C@@H]2CCN(C)C2)n1` [Compound 1-428, 5-[(2R)-4-(7-chloro-1H-indole-1-carbonyl)-2-ethylpiperazin-1-yl]-2′-ethoxy-N-[(3R)-1-methylpyrrolidin-3-yl]-[2,3′-bipyridine]-6-carboxamide]: more than 8.00.
In the case of `CCOc1ncccc1-c1ccc(N2CCN(C(=O)c3ccc(Cl)cc3C(F)(F)F)C[C@H]2CC)c(C(=O)NCC2=NCCN2)c1F` [Compound 1-188, 6-[(2R)-4-[4-chloro-2-(trifluoromethyl)benzoyl]-2-ethylpiperazin-1-yl]-N-[(4,5-dihydro-1H-imidazol-2-yl)methyl]-3-(2-ethoxypyridin-3-yl)-2-fluorobenzamide], the pKi was more than 8.00.
On to `CCOc1ncccc1-c1ccc(N2CCN(C(=O)N3CCc4cccc(C#N)c43)C[C@H]2CC)c(C(=O)N[C@@H]2CCN(C)C2)n1` [Compound 1-383, 5-[(2R)-4-(7-cyano-2,3-dihydro-1H-indole-1-carbonyl)-2-ethylpiperazin-1-yl]-2′-ethoxy-N-[(3R)-1-methylpyrrolidin-3-yl]-[2,3′-bipyridine]-6-carboxamide], for which the pKi is more than 8.00.
For `CCOc1ncccc1-c1ccc(N2CCN(C(=O)c3ccc(Cl)cc3C(F)F)C[C@H]2CC)c(C(=O)NCCNC)c1F` [Compound 1-183, 6-[(2R)-4-[4-chloro-2-(difluoromethyl)benzoyl]-2-ethylpiperazin-1-yl]-3-(2-ethoxypyridin-3-yl)-2-fluoro-N-[2-(methylamino)ethyl]benzamide], the pKi is more than 8.00.
Regarding `CCOc1ccccc1-c1ccc(N2CCN(C(=O)OC3(C(F)(F)F)CCC3)C[C@H]2CC)c(C(=O)N[C@@H]2CCNC2)n1` [Compound 1-338, 1-(trifluoromethyl)cyclobutyl (3R)-4-[6-(2-ethoxyphenyl)-2-{[(3R)-pyrrolidin-3-yl]carbamoyl}pyridin-3-yl]-3-ethylpiperazine-1-carboxylate], the pKi was more than 8.00.
Take `CCOc1ncccc1-c1ccc(N2CCN(C(=O)c3ccc(Cl)cc3N3CC[C@@H](CN)C3)C[C@H]2CC)c(C(=O)NCCN)c1` [Compound 1-41, N-(2-aminoethyl)-2-[(2R)-4-{2-[(3S)-3-(aminomethyl)pyrrolidin-1-yl]-4-chlorobenzoyl}-2-ethylpiperazin-1-yl]-5-(2-ethoxypyridin-3-yl)benzamide]: the pKi was more than 8.00.
Take `CC[C@@H]1CN(C(=O)c2ccc(Cl)cc2C(F)(F)F)CCN1c1ccc(-c2cccnc2OC)cc1C(=O)NCCN` [Compound 1-71, N-(2-aminoethyl)-2-[(2R)-4-[4-chloro-2-(trifluoromethyl)benzoyl]-2-ethylpiperazin-1-yl]-5-(2-methoxypyridin-3-yl)benzamide]: the pKi is more than 8.00.
As to `CCOc1ncccc1-c1ccc(N2CCN(C(=O)N3CCc4cc(F)cc(C#N)c43)C[C@H]2CC)c(C(=O)NC2CN(C)C2)n1` [Compound 1-422, 5-[(2R)-4-(7-cyano-5-fluoro-2,3-dihydro-1H-indole-1-carbonyl)-2-ethylpiperazin-1-yl]-2′-ethoxy-N-(1-methylazetidin-3-yl)-[2,3′-bipyridine]-6-carboxamide], the pKi is more than 8.00.
As for `CCOc1ncccc1-c1ccc(N2CCN(C(=O)c3ccc(F)cc3-c3ccc(CN)cc3)C[C@H]2CC)c(C(=O)NCCN)c1` [Compound 1-36, N-(2-aminoethyl)-2-[(2R)-4-[4′-(aminomethyl)-5-fluoro-[1,1′-biphenyl]-2-carbonyl]-2-ethylpiperazin-1-yl]-5-(2-ethoxypyridin-3-yl)benzamide], the pKi was more than 8.00.
In the case of `CCOc1ccc(C(=O)N2CCN(c3ccc(-c4ccccc4OCC)nc3C(=O)NC3CN(C)C3)[C@H](CC)C2)c(C(F)(F)F)n1` [Compound 1-237, 3-[(2R)-4-[6-ethoxy-2-(trifluoromethyl)pyridine-3-carbonyl]-2-ethylpiperazin-1-yl]-6-(2-ethoxyphenyl)-N-(1-methylazetidin-3-yl)pyridine-2-carboxamide], the pKi is more than 8.00.
On to `CCOc1ncccc1-c1ccc(N2CCN(C(=O)N3CCc4cccc(C#N)c43)C[C@H]2CC)c(C(=O)N[C@@H]2CCNC2)n1` [Compound 1-365, 5-[(2R)-4-(7-cyano-2,3-dihydro-1H-indole-1-carbonyl)-2-ethylpiperazin-1-yl]-2′-ethoxy-N-[(3R)-pyrrolidin-3-yl]-[2,3′-bipyridine]-6-carboxamide], for which the pKi was more than 8.00.
Next, `CCOc1ncccc1-c1ccc(N2CCN(C(=O)N3CCC[C@H]3c3ccccc3)C[C@H]2CC)c(C(=O)N[C@@H]2CCNC2)n1` [Compound 1-345, 2′-ethoxy-5-[(2R)-2-ethyl-4-[(2S)-2-phenylpyrrolidine-1-carbonyl]piperazin-1-yl]-N-[(3R)-pyrrolidin-3-yl]-[2,3′-bipyridine]-6-carboxamide]: more than 8.00; `CCOc1ncccc1-c1ccc(N2CCN(C(=O)c3ccc(F)cc3Cl)C[C@H]2CC)c(C(=O)N[C@@H]2CCNC2)c1` [Compound 1-82, 2-[(2R)-4-(2-chloro-4-fluorobenzoyl)-2-ethylpiperazin-1-yl]-5-(2-ethoxypyridin-3-yl)-N-[(3R)-pyrrolidin-3-yl]benzamide]: more than 8.00; `CC[C@@H]1CN(C(=O)c2ccc(Cl)cc2C(F)(F)F)CCN1c1ccc(-c2ccccc2OC)cc1CN` [Compound 2-3, 1-{4-[(2R)-4-[4-chloro-2-(trifluoromethyl)benzoyl]-2-ethylpiperazin-1-yl]-2′-methoxy-[1,1′-biphenyl]-3-yl}methanamine]: 7.00 to 8.00.
Regarding `CCOc1cccnc1-c1ccc(N2CCN(C(=O)c3ccc(C(F)(F)F)cc3Cl)C[C@H]2CC)c(C(=O)NCCN)c1` [Compound 1-32, N-(2-aminoethyl)-2-[(2R)-4-[2-chloro-4-(trifluoromethyl)benzoyl]-2-ethylpiperazin-1-yl]-5-(3-ethoxypyridin-2-yl)benzamide], the pKi is 7.00 to 8.00.
Next, `CCOc1ncccc1-c1ccc(N2CCN(C(=O)c3ccc(Cl)cc3C(F)(F)F)C[C@H]2CC)c(C(=O)NCC2=NCCN2)c1` [Compound 1-125, 2-[(2R)-4-[4-chloro-2-(trifluoromethyl)benzoyl]-2-ethylpiperazin-1-yl]-N-[(4,5-dihydro-1H-imidazol-2-yl)methyl]-5-(2-ethoxypyridin-3-yl)benzamide]: more than 8.00; `CCOc1ncccc1-c1ccc(N2CCN(C(=O)c3ccc(C(F)(F)F)cc3N3CCC(CN)C3)C[C@H]2CC)c(C(=O)NCCN)c1` (stereo partly drawn) [Compound 1-50, N-(2-aminoethyl)-2-[(2R)-4-{2-[3-(aminomethyl)pyrrolidin-1-yl]-4-(trifluoromethyl)benzoyl}-2-ethylpiperazin-1-yl]-5-(2-ethoxypyridin-3-yl)benzamide]: more than 8.00.
For the compound `CCOc1ncccc1-c1ccc(N2CCN(C(=O)C3(C(F)(F)F)CCCC3)C[C@H]2CC)c(C(=O)NCC2(OC)CN(C)C2)n1` [Compound 1-334, 2′-ethoxy-5-[(2R)-2-ethyl-4-[1-(trifluoromethyl)cyclopentanecarbonyl]piperazin-1-yl]-N-[(3-methoxy-1-methylazetidin-3-yl)methyl]-[2,3′-bipyridine]-6-carboxamide], the pKi is more than 8.00.

Values taken from US10981894B2, “Melanocortin subtype-2 receptor (MC2R) antagonists and uses thereof” (Crinetics Pharmaceuticals, Inc., priority 2018, dated 2021).
